Experimental data as given in patent US11820766B2, “Monoacylglycerol lipase modulators” (Janssen Pharmaceutica NV, priority 2018, dated 2023).

The compounds below were run against T1, human MGL from HeLa cells (Homo sapiens, UniProt Q99685) (assay: In vitro MGL activity assay: [glycerol-1,3-3H]-oleyl glycerol cleavage by MGL from HeLa cells). Conditions: 300 nM [Glycerol-1,3-3H]-oleyl glycerol, one hour.
T1 construct: combining endogenously expressed MGL from HeLa cells with test compounds; endogenous in cells; host or cells: HeLa cells / cell homogenates
T1 sequence (Q99685 1-303): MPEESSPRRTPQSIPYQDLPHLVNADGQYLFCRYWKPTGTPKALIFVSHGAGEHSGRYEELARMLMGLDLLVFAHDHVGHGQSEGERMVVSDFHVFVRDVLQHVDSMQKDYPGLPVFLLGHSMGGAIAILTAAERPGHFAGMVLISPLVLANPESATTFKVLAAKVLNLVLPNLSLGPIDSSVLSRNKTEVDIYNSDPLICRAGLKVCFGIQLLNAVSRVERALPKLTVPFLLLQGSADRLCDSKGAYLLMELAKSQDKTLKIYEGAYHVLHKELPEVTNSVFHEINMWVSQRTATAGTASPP
Assay type: biochemical
Description: MGL is the predominant hydrolase in HeLa cells/cell homogenates.
An IC50 of 80.7 nM was found for `C[C@H]1c2nn(C)c(-c3cc(F)c(F)c(F)c3)c2CCN1C(=O)c1ccc2nc(O)ccc2c1` [Example 517, [(7S)-2,7-Dimethyl-3-(3,4,5-trifluorophenyl)-5,7-dihydro-4H-pyrazolo[3,4-c]pyridin-6-yl]-(2-hydroxy-6-quinolyl)methanone] in this work. An IC50 of 1450 nM was found for `Cc1ccc(-c2c3c(nn2C)[C@H](C)N(C(=O)c2ccc4ncccc4c2)CC3)cn1` [Example 519, [(7S)-2,7-Dimethyl-3-(6-methyl-3-pyridyl)-5,7-dihydro-4H-pyrazolo[3,4-c]pyridin-6-yl]-(6-quinolyl)methanone] in this work. An IC50 of 1110 nM was found for `Cc1cc(-c2c3c(nn2C)[C@H](C)N(C(=O)c2ccc4ncccc4c2)CC3)ccn1` [Example 520, [(7S)-2,7-Dimethyl-3-(2-methyl-4-pyridyl)-5,7-dihydro-4H-pyrazolo[3,4-c]pyridin-6-yl]-(6-quinolyl)methanone] in this work. An IC50 of 766 nM was found for `C[C@H]1c2nn(C)c(-c3ccc(C(F)F)nc3)c2CCN1C(=O)c1ccc2ncccc2c1` [Example 521, [(7S)-3-[6-(Difluoromethyl)-3-pyridyl]-2,7-dimethyl-5,7-dihydro-4H-pyrazolo[3,4-c]pyridin-6-yl]-(6-quinolyl)methanone] in this work. An IC50 of 267 nM was found for `C[C@H]1c2nn(C)c(-c3ccc(C(F)(F)F)nc3)c2CCN1C(=O)c1ccc2ncccc2c1` [Example 522, [(7S)-2,7-Dimethyl-3-[6-(trifluoromethyl)-3-pyridyl]-5,7-dihydro-4H-pyrazolo[3,4-c]pyridin-6-yl]-(6-quinolyl)methanone] in this work. An IC50 of 417 nM was found for `C[C@H]1c2nn(C)c(-c3ccnc(C(F)(F)F)c3)c2CCN1C(=O)c1ccc2ncccc2c1` [Example 523, [(7S)-2,7-Dimethyl-3-[2-(trifluoromethyl)-4-pyridyl]-5,7-dihydro-4H-pyrazolo[3,4-c]pyridin-6-yl]-(6-quinolyl)methanone] in this work. An IC50 of 7.23 nM was found for `C[C@H]1c2nn(C)c(-c3csc(C(F)(F)F)c3)c2CCN1C(=O)c1ccc2ncccc2c1` [Example 524, [(7S)-2,7-Dimethyl-3-[5-(trifluoromethyl)-3-thienyl]-5,7-dihydro-4H-pyrazolo[3,4-c]pyridin-6-yl]-(6-quinolyl)methanone] in this work. An IC50 of 602 nM was found for `COc1ccc(-c2c3c(nn2C)[C@H](C)N(C(=O)c2ccc4ncccc4c2)CC3)cn1` [Example 525, [(7S)-3-(6-Methoxy-3-pyridyl)-2,7-dimethyl-5,7-dihydro-4H-pyrazolo[3,4-c]pyridin-6-yl]-(6-quinolyl)methanone] in this work. An IC50 of 502 nM was found for `COc1cc(-c2c3c(nn2C)[C@H](C)N(C(=O)c2ccc4ncccc4c2)CC3)ccn1` [Example 526, [(7S)-3-(2-Methoxy-4-pyridyl)-2,7-dimethyl-5,7-dihydro-4H-pyrazolo[3,4-c]pyridin-6-yl]-(6-quinolyl)methanone] in this work. An IC50 of 278 nM was found for `C[C@H]1c2nn(C)c(-c3ccc(OC(F)F)nc3)c2CCN1C(=O)c1ccc2ncccc2c1` [Example 527, [(7S)-3-[6-(Difluoromethoxy)-3-pyridyl]-2,7-dimethyl-5,7-dihydro-4H-pyrazolo[3,4-c]pyridin-6-yl]-(6-quinolyl)methanone] in this work. An IC50 of 397 nM was found for `C[C@H]1c2nn(C)c(-c3cncc(OC(F)F)c3)c2CCN1C(=O)c1ccc2ncccc2c1` [Example 528, [(7S)-3-[5-(Difluoromethoxy)-3-pyridyl]-2,7-dimethyl-5,7-dihydro-4H-pyrazolo[3,4-c]pyridin-6-yl]-(6-quinolyl)methanone] in this work. An IC50 of 320 nM was found for `COc1ncc(-c2c3c(nn2C)[C@H](C)N(C(=O)c2ccc4ncccc4c2)CC3)cc1C` [Example 529, [(7S)-3-(6-Methoxy-5-methyl-3-pyridyl)-2,7-dimethyl-5,7-dihydro-4H-pyrazolo[3,4-c]pyridin-6-yl]-(6-quinolyl)methanone] in this work. An IC50 of 130 nM was found for `COc1ncc(-c2c3c(nn2C)[C@H](C)N(C(=O)c2ccc4ncccc4c2)CC3)cc1C(F)(F)F` [Example 530, [(7S)-3-[6-Methoxy-5-(trifluoromethyl)-3-pyridyl]-2,7-dimethyl-5,7-dihydro-4H-pyrazolo[3,4-c]pyridin-6-yl]-(6-quinolyl)methanone] in this work. An IC50 of 22.9 nM was found for `C[C@H]1c2nn(C)c(-c3cccc4cc[nH]c34)c2CCN1C(=O)c1ccc2ncccc2c1` [Example 531, [(7S)-3-(1H-Indol-7-yl)-2,7-dimethyl-5,7-dihydro-4H-pyrazolo[3,4-c]pyridin-6-yl]-(6-quinolyl)methanone] in this work. An IC50 of 65 nM was found for `C[C@H]1c2nn(C)c(-c3ccc4ccoc4c3)c2CCN1C(=O)c1ccc2ncccc2c1` [Example 532, [(7S)-3-(Benzofuran-6-yl)-2,7-dimethyl-5,7-dihydro-4H-pyrazolo[3,4-c]pyridin-6-yl]-(6-quinolyl)methanone] in this work. An IC50 of 17.4 nM was found for `C[C@H]1c2nn(C)c(-c3ccc4occc4c3)c2CCN1C(=O)c1ccc2ncccc2c1` [Example 533, [(7S)-3-(Benzofuran-5-yl)-2,7-dimethyl-5,7-dihydro-4H-pyrazolo[3,4-c]pyridin-6-yl]-(6-quinolyl)methanone] in this work. An IC50 of 25.1 nM was found for `C[C@H]1c2nn(C)c(-c3cccc4ccoc34)c2CCN1C(=O)c1ccc2ncccc2c1` [Example 534, [(7S)-3-(Benzofuran-7-yl)-2,7-dimethyl-5,7-dihydro-4H-pyrazolo[3,4-c]pyridin-6-yl]-(6-quinolyl)methanone] in this work. An IC50 of 18.1 nM was found for `C[C@H]1c2nn(C)c(-c3cccc4occc34)c2CCN1C(=O)c1ccc2ncccc2c1` [Example 535, [(7S)-3-(Benzofuran-4-yl)-2,7-dimethyl-5,7-dihydro-4H-pyrazolo[3,4-c]pyridin-6-yl]-(6-quinolyl)methanone] in this work. An IC50 of 20 nM was found for `C[C@H]1c2nn(C)c(-c3cc(F)cc4ccoc34)c2CCN1C(=O)c1ccc2ncccc2c1` [Example 536, [(7S)-3-(5-Fluorobenzofuran-7-yl)-2,7-dimethyl-5,7-dihydro-4H-pyrazolo[3,4-c]pyridin-6-yl]-(6-quinolyl)methanone] in this work. An IC50 of 33 nM was found for `C[C@H]1c2nn(C)c(-c3cccc4scnc34)c2CCN1C(=O)c1ccc2ncccc2c1` [Example 537, [(7S)-3-(1,3-Benzothiazol-4-yl)-2,7-dimethyl-5,7-dihydro-4H-pyrazolo[3,4-c]pyridin-6-yl]-(6-quinolyl)methanone] in this work. An IC50 of 72.6 nM was found for `C[C@H]1c2nn(C)c(-c3cccc4nonc34)c2CCN1C(=O)c1ccc2ncccc2c1` [Example 538, [(7S)-3-(2,1,3-Benzoxadiazol-4-yl)-2,7-dimethyl-5,7-dihydro-4H-pyrazolo[3,4-c]pyridin-6-yl]-(6-quinolyl)methanone] in this work. An IC50 of 55.2 nM was found for `C[C@H]1c2nn(C)c(-c3cccc4c3OCC4)c2CCN1C(=O)c1ccc2ncccc2c1` [Example 539, [(7S)-3-(2,3-Dihydrobenzofuran-7-yl)-2,7-dimethyl-5,7-dihydro-4H-pyrazolo[3,4-c]pyridin-6-yl]-(6-quinolyl)methanone] in this work. An IC50 of 133 nM was found for `C[C@H]1c2nn(C)c(-c3ccc4c(c3)OCO4)c2CCN1C(=O)c1ccc2ncccc2c1` [Example 540, [(7S)-3-(1,3-Benzodioxol-5-yl)-2,7-dimethyl-5,7-dihydro-4H-pyrazolo[3,4-c]pyridin-6-yl]-(6-quinolyl)methanone] in this work. An IC50 of 2.17 nM was found for `C[C@H]1c2nn(C)c(-c3cccc4c3OCO4)c2CCN1C(=O)c1ccc2ncccc2c1` [Example 541, [(7S)-3-(1,3-Benzodioxol-4-yl)-2,7-dimethyl-5,7-dihydro-4H-pyrazolo[3,4-c]pyridin-6-yl]-(6-quinolyl)methanone] in this work. An IC50 of 81.2 nM was found for `C[C@H]1c2nn(C)c(-c3cccc4c3OC(F)(F)O4)c2CCN1C(=O)c1ccc2ncccc2c1` [Example 542, [(7S)-3-(2,2-Difluoro-1,3-benzodioxol-4-yl)-2,7-dimethyl-5,7-dihydro-4H-pyrazolo[3,4-c]pyridin-6-yl]-(6-quinolyl)methanone] in this work. An IC50 of 4.92 nM was found for `C[C@H]1c2nn(C)c(-c3cc(F)c(F)c(F)c3)c2CCN1C(=O)c1cccc2cnccc12` [Example 543, [(7S)-2,7-Dimethyl-3-(3,4,5-trifluorophenyl)-5,7-dihydro-4H-pyrazolo[3,4-c]pyridin-6-yl]-(5-isoquinolyl)methanone] in this work. An IC50 of 10.2 nM was found for `C[C@H]1c2nn(C)c(-c3cc(F)c(F)c(F)c3)c2CCN1C(=O)c1ccc2cnccc2c1` [Example 544, [(7S)-2,7-Dimethyl-3-(3,4,5-trifluorophenyl)-5,7-dihydro-4H-pyrazolo[3,4-c]pyridin-6-yl]-(6-isoquinolyl)methanone] in this work. An IC50 of 11.7 nM was found for `C[C@H]1c2nn(C)c(-c3cc(F)c(F)c(F)c3)c2CCN1C(=O)c1cnc2cccc(F)c2c1` [Example 545, [(7S)-2,7-Dimethyl-3-(3,4,5-trifluorophenyl)-5,7-dihydro-4H-pyrazolo[3,4-c]pyridin-6-yl]-(5-fluoro-3-quinolyl)methanone] in this work. An IC50 of 5.06 nM was found for `C[C@H]1c2nn(C)c(-c3cc(F)c(F)c(F)c3)c2CCN1C(=O)c1cncc2c(F)cccc12` [Example 546, [(7S)-2,7-Dimethyl-3-(3,4,5-trifluorophenyl)-5,7-dihydro-4H-pyrazolo[3,4-c]pyridin-6-yl]-(8-fluoro-4-isoquinolyl)methanone] in this work. An IC50 of 5.62 nM was found for `C[C@H]1c2nn(C)c(-c3cc(F)c(F)c(F)c3)c2CCN1C(=O)c1ccc2nccc(Br)c2c1` [Example 547, (4-Bromo-6-quinolyl)-[(7S)-2,7-dimethyl-3-(3,4,5-trifluorophenyl)-5,7-dihydro-4H-pyrazolo[3,4-c]pyridin-6-yl]methanone] in this work. An IC50 of 16.2 nM was found for `Cc1ccc2cc(C(=O)N3CCc4c(nn(C)c4-c4cc(F)c(F)c(F)c4)[C@@H]3C)ccc2n1` [Example 548, [(7S)-2,7-Dimethyl-3-(3,4,5-trifluorophenyl)-5,7-dihydro-4H-pyrazolo[3,4-c]pyridin-6-yl]-(2-methyl-6-quinolyl)methanone] in this work.
